Where two headings read alike, the source gives them in different places.
Key:
δ-OR = settings: cited from earlier work
hκ-OR = settings: cited from earlier work
mμ-OR mutants = assay type: cell-based, mouse; settings: mμ-OR mutations at D^3.32, Y^3.33, V^5.43, I^6.51 (Fig. 5J)
[1] = system: WT mδ-OR, mδ-OR-Q190^ECL2H, mδ-OR-Q201^ECL2H, mδ-OR-S45^N-terminalH, mδ-OR-E112^ECL1H; assay type: cell-based, mouse
mδ-OR mutants = assay type: cell-based, mouse
[2] = target: mδ-OR-3M-PSA(28–30)-LGG (mouse) (UniProt P32300); assay: MST
[3] = target: mδ-OR-K108^2.63N-L125^3.29I-R291^ECL3A (mouse) (UniProt P32300); assay: MST
mδ-OR-R292^ECL3E (mouse) = mδ-OR-R292^ECL3E (mouse) (UniProt P32300); assay: MST
mδ-OR-R291^ECL3A (mouse) = mδ-OR-R291^ECL3A (mouse) (UniProt P32300); assay: MST
[4] = target: mouse δ-opioid receptor, wild type (mouse) (UniProt P32300); assay: MST
mδ-OR-K108^2.63N (mouse) = mδ-OR-K108^2.63N (mouse) (UniProt P32300); assay: MST
μ-OR over δ-OR = settings: cited from earlier work
mδ-OR and its variants = assay: Maximal K+ current density evoked by saturating full agonist, mδ-OR variants; assay type: cell-based, mouse
δ/μ^N-terminal Chimera = assay type: cell-based, mouse

deltorphin
selectivity for δ-OR (δ-OR): more than 1000 fold

CC(C)[C@@H](CN1CC[C@@](C)(c2cccc(O)c2)[C@@H](C)C1)NC(=O)[C@H]1Cc2ccc(O)cc2CN1 [JDTic]
selectivity for hκ-OR (hκ-OR): more than 1000 fold

CN1CC[C@]23c4c5ccc(O)c4O[C@H]2[C@@H](O)C=C[C@H]3[C@H]1C5 [morphine]
agonist-induced activation of mutants (mμ-OR mutants): significant reductions
effect of ZnCl2 on agonist activation (control) ([1]; 1 mmol/L ZnCl2, WT mδ-OR, mδ-OR-Q190^ECL2H, mδ-OR-Q201^ECL2H): did not alter
effect of ZnCl2 on agonist activation (control) ([1]; 3 mmol/L ZnCl2, mδ-OR-S45^N-terminalH, mδ-OR-E112^ECL1H): did not alter
change in potency for mδ-OR (mδ-OR mutants; mutations of K108^2.63 to Ala or Asn): increased the potency
agonist-induced activation of mutants (mδ-OR mutants; mδ-OR mutations at D^3.32, Y^3.33, V^5.43, I^6.51 (Fig. 5H)): significant reductions

endomorphin-1 (peptide)
Kd [2]: 1.03 nM
Kd [3]: 9.42 nM
Kd (mδ-OR-R292^ECL3E (mouse)): 408 nM
Kd (mδ-OR-R291^ECL3A (mouse)): 344 nM
Kd [4]: 2940 nM
Kd (mδ-OR-K108^2.63N (mouse)): 299 nM

endomorphin-2 [EM-2]
μ-OR selectivity over δ-OR (μ-OR over δ-OR): > 1500 fold

Leu-enkephalin
maximum currents vs wild-type receptor (mδ-OR and its variants): statistically indistinguishable from wild-type receptor

CC[C@H](C)[C@H](NC(=O)[C@H](C)NC(=O)[C@H](CC(N)=O)NC(=O)[C@H](CCCCN)NC(=O)[C@H](Cc1ccccc1)NC(=O)[C@H](CC(C)C)NC(=O)[C@@H](NC(=O)[C@@H](NC(=O)[C@H](CC(C)C)NC(=O)[C@@H]1CCCN1C(=O)[C@@H](NC(=O)[C@H](CCC(N)=O)NC(=O)[C@H](CO)NC(=O)[C@H](CCCCN)NC(=O)[C@H](CCC(=O)O)NC(=O)[C@H](CO)NC(=O)[C@@H](NC(=O)[C@H](CCSC)NC(=O)[C@H](Cc1ccccc1)NC(=O)CNC(=O)CNC(=O)[C@@H](N)Cc1ccc(O)cc1)[C@@H](C)O)[C@@H](C)O)C(C)C)[C@@H](C)O)C(=O)N[C@H](C(=O)N[C@@H](CCCCN)C(=O)N[C@@H](CC(N)=O)C(=O)N[C@@H](C)C(=O)N[C@@H](Cc1ccc(O)cc1)C(=O)N[C@@H](CCCCN)C(=O)N[C@@H](CCCCN)C(=O)NCC(=O)N[C@@H](CCC(=O)O)C(=O)O)[C@@H](C)CC [β-endorphin]
preference between μ-OR and δ-OR (μ-OR over δ-OR): no discernible preference
EC50 (δ/μ^N-terminal Chimera): 10.3 ± 0.9 nM

Reference: publication PMC13031153 (Acta Pharmaceutica Sinica. B, 2025)
